Reference: ChEMBL document CHEMBL1150911, “New ceramide from marine sponge Haliclona koremella and related compounds as antifouling substances against macroalgae” (J Nat Prod, 1998)
Active and inactive are the calls of the source. No cut-off for these calls is given here.

How the values were obtained:
[1] = tested on: Prorocentrum micans; assay: Antimicrobial activity against Prorocentrum micans at 5 ppm; format: functional, organism-based
[2] = tested on: Brachiomonas submarina; assay: Antimicrobial activity against […] at 5 ppm; format: functional, organism-based
[3] = tested on: Ulva; assay: Antifouling activity against Ulva conglobata spores assessed as germination and attachment rate at 5 ppm; format: functional
[4] = tested on: Anagnostidinema amphibium; assay: Antimicrobial activity against Oscillatoria amphibia at 5 ppm; format: functional, organism-based
[5] = tested on: Skeletonema costatum; assay: Antimicrobial activity against Skeletonema costatum at 5 ppm; format: functional, organism-based
[6] = tested on: Ulva; assay: Antifouling activity against Ulva conglobata spores assessed as germination and attachment rate at 1 ppm; format: functional
[7] = tested on: Ulva; assay: Toxicity against Ulva conglobata at 50 ppm; format: organism-based; settings: in vivo
[8] = tested on: Anagnostidinema amphibium; assay: Antimicrobial activity against Oscillatoria amphibia at 1 ppm; format: functional, organism-based
[9] = tested on: Brachiomonas submarina; assay: Antimicrobial activity against […] at 1 ppm; format: functional, organism-based

Row | SMILES | Activity [1] | Activity [2] | Activity [4] | Activity [7] | also measured
1 | CCCCCCCCCCCCC/C=C/[C@@H](O)[C@H](CO)N(C)C | Active | Active | Active | – | Activity [3]: Active; Activity [5]: Active
2 | CCCCCCCCCCCCC/C=C/[C@@H](O)[C@@H](N)CO [SPHINGOSINE] | Active | Active | Active | – | Activity [3]: 0%; Activity [5]: Active; Activity [6]: 15%
3 | CCCCCCCCCCCCC/C=C/[C@@H](O)[C@H](CO)NC(=O)CCCCC | – | – | – | Non-toxic | –
4 | CCCCCCCCCCCCCCC[C@@H](O)[C@@H](N)CO | Active | Active | Active | – | Activity [8]: Active; Activity [9]: Active
5 | CCCCCCCCCCCCC/C=C/[C@@H](O)[C@H](CO)NC(C)=O | – | – | – | Non-toxic | –
6 | CCCCCCCCCCCCC/C=C/[C@@H](O)[C@H](CO)NC(=O)CCCCCCCCCCCCCCC | – | – | – | Non-toxic | –
7 | CCCCCCCCCCCCCCCCCCCCCC(=O)N[C@@H](CO)[C@H](O)/C=C/CCCCCCCCCCC(C)C | – | – | – | Non-toxic | –
8 | CCCCCCCCCCCCC/C=C/[C@@H](O)[C@H](CO)NC(=O)CCCCCCC | – | – | – | Non-toxic | –
